Test results: ChEMBL document CHEMBL1145289, “Propidium-based polyamine ligands as potent inhibitors of acetylcholinesterase and acetylcholinesterase-induced amyloid-beta aggregation” (J Med Chem, 2005)

Key:
Cholinesterase = Cholinesterase (Homo sapiens, UniProt P06276)
Description: Inhibition of Butyrylcholinesterase

Acetylcholinesterase [1] = biological target: T1, Acetylcholinesterase (Homo sapiens, UniProt P22303)
Description: Inhibition of Acetylcholinesterase

Acetylcholinesterase [2] = biological target: T1, Acetylcholinesterase; remark: listed apart in the source
Description: Competitive inhibition constant for Acetylcholinesterase

T1 sequence (P22303 whole entry): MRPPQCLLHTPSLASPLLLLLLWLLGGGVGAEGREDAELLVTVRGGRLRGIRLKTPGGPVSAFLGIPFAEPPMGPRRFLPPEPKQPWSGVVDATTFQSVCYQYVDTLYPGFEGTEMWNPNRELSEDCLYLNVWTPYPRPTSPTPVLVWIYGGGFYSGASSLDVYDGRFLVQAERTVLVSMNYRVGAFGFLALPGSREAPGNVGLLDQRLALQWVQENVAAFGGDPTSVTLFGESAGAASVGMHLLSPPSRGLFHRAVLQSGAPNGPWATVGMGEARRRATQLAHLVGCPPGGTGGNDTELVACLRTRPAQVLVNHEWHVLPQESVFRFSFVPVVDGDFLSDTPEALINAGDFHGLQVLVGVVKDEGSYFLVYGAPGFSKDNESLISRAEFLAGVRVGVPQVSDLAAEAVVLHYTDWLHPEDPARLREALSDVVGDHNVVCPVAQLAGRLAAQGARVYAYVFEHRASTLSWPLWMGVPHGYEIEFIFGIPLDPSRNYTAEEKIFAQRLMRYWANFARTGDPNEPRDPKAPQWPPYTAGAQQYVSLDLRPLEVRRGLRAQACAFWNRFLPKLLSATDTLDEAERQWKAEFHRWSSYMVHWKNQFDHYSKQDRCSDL
Chain of Cholinesterase (P06276 whole entry): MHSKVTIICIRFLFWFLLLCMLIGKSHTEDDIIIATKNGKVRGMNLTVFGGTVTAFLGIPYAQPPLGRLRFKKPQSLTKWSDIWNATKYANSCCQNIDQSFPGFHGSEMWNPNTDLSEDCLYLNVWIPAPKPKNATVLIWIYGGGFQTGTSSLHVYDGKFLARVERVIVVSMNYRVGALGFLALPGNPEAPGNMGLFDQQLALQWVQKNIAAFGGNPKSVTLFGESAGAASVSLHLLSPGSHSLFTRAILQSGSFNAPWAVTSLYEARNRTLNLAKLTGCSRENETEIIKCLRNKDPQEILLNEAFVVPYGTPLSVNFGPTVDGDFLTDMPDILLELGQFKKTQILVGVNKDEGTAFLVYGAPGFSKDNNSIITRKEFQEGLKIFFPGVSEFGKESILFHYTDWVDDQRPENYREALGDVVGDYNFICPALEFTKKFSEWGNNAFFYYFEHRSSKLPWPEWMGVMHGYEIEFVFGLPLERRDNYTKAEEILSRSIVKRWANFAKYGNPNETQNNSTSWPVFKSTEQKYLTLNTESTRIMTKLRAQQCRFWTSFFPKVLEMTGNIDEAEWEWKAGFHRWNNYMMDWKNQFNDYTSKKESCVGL

Row | Structure (SMILES) | IC50 (Cholinesterase) | IC50 (Acetylcholinesterase [1]) | Ki (Acetylcholinesterase [2])
1 | Nc1ccc2c(c1)c(-c1ccccc1)[n+](CCCNCCCNCCCNc1c3c(nc4ccccc14)CCCC3)c1cc(N)ccc21 | 63.7 nM | 1.55 nM | 1.49 nM
2 | COc1ccccc1CN(C)CCCN(C)CCCNCCC[n+]1c(-c2ccccc2)c2cc(N)ccc2c2ccc(N)cc21 | 2190 nM | 952 nM | 894 nM
3 | COc1ccccc1CN(C)CCCCCC(=O)N(C)CCCCCCCCN(C)C(=O)CCCCCN(C)Cc1ccccc1OC [CAPROCTAMINE] | 11600 nM |  | 
